Measured values as given in PMC13427755 (Nature Communications, 2026).
Like-named read-outs stand apart in the source and are kept apart here. Where a SMILES comes first, the peptide text is derived from it.

System: participants with IPF
Assay type: in vivo, human
Description: This was a Phase 1b, randomized, double-blind, placebo-controlled, dose escalation study conducted at 6 sites in the United States, United Kingdom, Germany, and Australia (ClinicalTrials.gov: NCT05954988).
The full study protocol and statistical analysis plan are provided as Supplementary Notes 1 and 2, respectively. The completed CONSORT checklist for reporting of this study is provided as Supplementary Note 3.
Randomization was performed by interactive response system. Participants, study staff, and sponsor personnel were blinded to treatment assignment throughout the study.
Safety and tolerability assessments were performed through treatment and follow-up and included evaluation of TEAEs, concomitant medications, physical examinations, vital signs, 12-lead ECGs, clinical laboratory assessments, spirometry, and cough symptoms using the validated LCQ[22] and a cough VAS. Spirometry was performed according to American Thoracic Society (ATS) / European Respiratory Society (ERS) Task Force guidelines[46] at all clinic visits, with assessments conducted both pre-and post-dose on study drug dosing days. Study staff monitored participants’ self-administration of the study drug (the morning dose) during on-site visits, and symptoms were monitored for at least 1h.
The primary endpoint was the incidence of TEAEs reported from Day 1 through follow-up. TEAEs were coded using MedDRA (Version 26.1) and graded using the National Cancer Institute Common Terminology for Adverse Events (CTCAE) Version 5. Safety analyses included all participants who received the study drug. […] Placebo participants in each cohort were pooled for safety and biomarker analyses. No secondary endpoints were specified.

[1] = 5 mg/day (2.5 mg BID) inhaled, 14 days, IPF, N = 9
[2] = 10 mg/day (5 mg BID) inhaled, 14 days, IPF, N = 9

CC(C)[C@H](NC(=O)[C@@H](NC(=O)[C@H](Cc1ccccc1)NC(=O)[C@@H](NC(=O)[C@@H](NC(=O)[C@@H](N)Cc1ccccc1)[C@@H](C)O)[C@@H](C)O)[C@@H](C)O)C(=O)N[C@H](C(=O)O)[C@@H](C)O [LTI-03] (H-FTTFTVT-OH; N-terminus and C-terminus assumed) was tested. Which “TEAE: Back pain” value [1] did it give?
The value was 1 (11.1) n (%).

And the “TEAE: Body temperature increased” value [1]?
Its value is 1 (11.1) n (%).

What about the “TEAE: COVID-19” value [1] of the same molecule?
Its value is 1 (11.1) n (%).

And the “TEAE: Chest discomfort” value [1]?
The value was 1 (11.1) n (%).

And the “TEAE: Dysgeusia” value [1]?
Its value is 1 (11.1) n (%).

And the “TEAE: Dyspnea, exertional” value [1]?
The value was 1 (11.1) n (%).

What about the “TEAE: Fatigue” value [1] of the same molecule?
Its value is 1 (11.1) n (%).

What about the “TEAE: Hyperkaliemia” value [1] of the same molecule?
Its value is 1 (11.1) n (%).

And the “TEAE: Ophthalmic migraine” value [1]?
The value was 1 (11.1) n (%).

And the “TEAE: Rhinorrhea” value [1]?
Its value is 1 (11.1) n (%).

And the “TEAEs Grade 2” value (5 mg/day (2.5 mg BID) inhaled, 14 days, IPF, N = 9, CTCAE v5)?
The value was 1 (11.1) n (%).

And the “Serious TEAEs” value [2]?
The value was 1 (11.1) n (%).

And the “TEAE related to study drug: Dry Mouth” value [2]?
Its value is 1 (11.1) n (%).

And the “TEAE related to study drug: Hypoesthesia oral” value [2]?
The value was 1 (11.1) n (%).

And the “TEAE related to study drug: Palpitations” value [2]?
Its value is 1 (11.1) n (%).

And the “TEAE related to study drug: Throat Irritation” value [2]?
The value was 1 (11.1) n (%).

What about the “TEAE: COVID-19” value [2] of the same molecule?
The value was 0 n (%).

And the “TEAE: Cold sweat” value [2]?
Its value is 1 (11.1) n (%).

And the “TEAE: Dry mouth” value [2]?
The value was 1 (11.1) n (%).

And the “TEAE: Hypoesthesia oral” value [2]?
The value was 1 (11.1) n (%).

What about the “TEAE: Nasopharyngitis” value [2] of the same molecule?
Its value is 1 (11.1) n (%).

What about the “TEAE: Palpitations” value [2] of the same molecule?
Its value is 1 (11.1) n (%).

What about the “TEAE: Productive cough” value [2] of the same molecule?
The value was 1 (11.1) n (%).

What about the “TEAE: Rhinorrhea” value [2] of the same molecule?
The value was 1 (11.1) n (%).

What about the “TEAE: Throat irritation” value [2] of the same molecule?
Its value is 1 (11.1) n (%).

And the “TEAE: Vertigo” value [2]?
Its value is 1 (11.1) n (%).

And the “TEAE: Post procedural fever” value (10 mg/day (5 mg BID) inhaled, 14 days, IPF, N = 9, serious, Grade 2, unrelated)?
Its value is 1 (11.1) n (%).

What about the “participants with TEAE cough” value (in vivo) of the same molecule?
The value was 44%.

And the “TEAE: COVID-19” value (pooled 5 and 10 mg/day inhaled, 14 days, IPF, N = 18)?
The value was 1 (5.6) n (%).
